Read-outs that look alike come from different tables or passages of the source.
Experiments:
[1] = system: Tetrahymena pyriformis W strain; assay: Antiprotozoal activity, MIC; assay type: cell-based; conditions: broth dilution method, pH 7.0, 28° C., 44 to 48 hours; for MIC: Tetrahymena pyriformis, read-out: MIC against Tetrahymena pyriformis W strain
Experimental: The antiprotozoal activity values as shown in Table 4 were assayed using Tetrahymena pyriformis W strain as the test organism and an assay medium composed of 20 g of tryptose peptone (manufactured by Difco), 1 g of yeast extract, 2 g of glucose, 1000 ml of distilled water and 10 ml of 1M phosphate buffer (pH 7.0). The incubation was continued at 28° C. for 44 to 48 hours and the minimum inhibitory concentration (MIC) of the compounds of this invention was determined by the broth dilution method.

[2] = system: Helminthosporium oryzae IFO-7503; assay: Antifungal activity, MIC; assay type: cell-based; conditions: Bipolaris oryzae, IFO7503
Gibberella fujiknroi = assay: Antifungal activity, MIC; assay type: cell-based
[3] = system: Helminthosporium sigmoideum IFO-4867; assay: Antifungal activity, MIC; assay type: cell-based; conditions: Nakataea oryzae, IFO4867
[4] = system: Aspergillus niger IFO-6341; assay: Antifungal activity, MIC; assay type: cell-based; conditions: IFO6341, test organism 1, 1% glucose-bouillon agar medium, serial dilution method
Experimental: The antimycotic (antifungal) activity values as shown in Table 3 were assayed on various organisms including phytopathogenic microorganisms using 1% glucose-bouillon agar medium, and the minimum inhibitory concentration (MIC) was determined by the serial dilution method.

[5] = system: Pyricularia oryzae IFO-5279; assay: microbe, parasite or virus in culture; assay type: cell-based; conditions: IFO5279
sarcoma 180 = assay: Effects against sarcoma 180 (survival rate, ICR mice); assay type: in vivo; conditions: 1 mg per mouse i.p., four days before 1×10^5 cells of sarcoma 180 i.p.; vs physiological saline control
[6] = system: Penicillium citrinum IFO-6352; assay: Antifungal activity, MIC; assay type: cell-based
[7] = system: Colletctrichum lagenarium IFO-6207; assay: Antifungal activity, MIC; assay type: cell-based
[8] = system: Saccharomyces cerevisiae IFO-0209; assay: Antifungal activity, MIC; assay type: cell-based
[9] = system: Botrytis cinerea IFO-5365; assay: Antifungal activity, MIC; assay type: cell-based
MM46 carcinoma = assay: Effects against MM46 (surviving mice, C3H/He mice); assay type: in vivo; conditions: 24th day after transplantation of 1×10^4 MM46 cells i.p.; 250 μg i.p., eight times in total
Experimental: To each of C3H/He mice group was transplanted intraperitoneally 1×10^4 cells of MM46 carcinoma. Four times from five days to two days before the transplantation and four times from two days to five days after the transplantation, eight times in total, 250 μg of the test compound dissolved in 0.2 ml of physiological saline was administered intraperitoneally. The number of mice surviving on the 24th day after transplantation of the carcinoma cells was compared with that of the control group administered with saline.

[10] = test organism 8, 1% glucose-bouillon agar medium, serial dilution method, read-out: MIC
[11] = IFO6352, test organism 2, 1% glucose-bouillon agar medium, serial dilution method, read-out: MIC
[12] = test organism 9, 1% glucose-bouillon agar medium, serial dilution method, read-out: MIC
[13] = IFO0209, test organism 3, 1% glucose-bouillon agar medium, serial dilution method, read-out: MIC
[14] = IFO5365, test organism 7, 1% glucose-bouillon agar medium, serial dilution method, read-out: MIC

With “2-Trimethylammonioethyl cetyl phosphonate [Production Example 8]” the “MIC against Tetrahymena pyriformis W strain” value [1] was 2 mg/L.
`CCCCCCCCCCCCCCOP(=O)([O-])OCC[N+](C)(C)C` [Production Example 1, Tetradecyl 2-trimethylammonioethyl phosphate] gave an MIC [2] of 12.5 mg/L, an MIC (Gibberella fujiknroi) of 25 mg/L and an MIC [3] of 6.25 mg/L. For the same molecule, the MIC [4] was 12.5 mg/L, the MIC [5] was 3.12 mg/L and the “Survival Rate (T/C)” value (sarcoma 180) was 217. It also gave an MIC ([6]; IFO6352) of 6.25 mg/L, an MIC [7] of 3.12 mg/L and an MIC [1] of 2 mg/L. For the same molecule, the MIC ([8]; IFO0209) was 12.5 mg/L and the MIC ([9]; IFO5365) was 25 mg/L.
`CCCCCCCCCCCCCCOP(=O)([O-])OCC[n+]1ccccc1` [Production Example 2, Tetradecyl 2-pyridinioethyl phosphate] was tested, and the MIC [2] was 25 mg/L, the MIC (Gibberella fujiknroi) was 25 mg/L and the MIC [3, 10] was 12.5 mg/L. The MIC [4] was 25 mg/L, the MIC [5] was 3.12 mg/L and the “Survival Rate (T/C)” value (sarcoma 180) was 152. The MIC [6, 11] was 12.5 mg/L, the MIC [7] was 3.12 mg/L and the MIC [1] was ≥ 4 mg/L. It also gave an MIC ([8]; IFO0209) of 50 mg/L and an MIC ([9]; IFO5365) of 50 mg/L.
Molecule `CCCCCCCC/C=C\CCCCCCCCOP(=O)([O-])OCC[N+](C)(C)C` [Production Example 3, Oleyl 2-trimethylammonioethyl phosphate] has an MIC [2] of 12.5 mg/L, an MIC (Gibberella fujiknroi) of 12.5 mg/L and an MIC [3] of 1.56 mg/L. The MIC [4] was 12.5 mg/L, the MIC [5] was 1.56 mg/L and the “Surviving mice/Test mice” value (MM46 carcinoma) was 3/5. The “Survival Rate (T/C)” value (sarcoma 180) was 302, the MIC [6, 11] was 25 mg/L and the MIC [7, 12] was 50 mg/L. The MIC [1] was 0.4 mg/L, the MIC [8, 13] was 6.25 mg/L and the MIC [9, 14] was 3.12 mg/L.
Work on `CCCCCCCC/C=C\CCCCCCCCOP(=O)([O-])OCC[n+]1ccccc1` [Production Example 4, Oleyl 2-pyridinioethyl phosphate] yielded an MIC [2] of 50 mg/L, an MIC (Gibberella fujiknroi; test organism 6, 1% glucose-bouillon agar medium, serial dilution method, read-out: MIC) of 25 mg/L and an MIC [3, 10] of 6.25 mg/L. The MIC [4] was 50 mg/L, the MIC [5] was 3.12 mg/L and the “Surviving mice/Test mice” value (MM46 carcinoma) was 2/5. The “Survival Rate (T/C)” value (sarcoma 180) was 308, the MIC [6, 11] was 25 mg/L and the MIC [7] was 50 mg/L. The MIC [8, 13] was 25 mg/L and the MIC [9, 14] was 6.25 mg/L.
In the case of `CCCCCCCCCCCCCCCCCCCCCCOP(=O)([O-])OCC[N+](C)(C)C` [Production Example 5, Docosyl trimethylammonioethyl phosphate], the “Survival Rate (T/C)” value (sarcoma 180) is reported as 167 and the MIC [1] is reported as > 4 mg/L.
`CCCCCCCCCCCCCCCCCCOP(=O)([O-])OCC[N+](C)(C)C` [Production Example 6, Stearyl 2-trimethylammonioethyl phosphate] was tested, and the MIC [2] was 50 mg/L, the MIC (Gibberella fujiknroi) was 50 mg/L and the MIC [3] was 3.12 mg/L. For the same molecule, the MIC [4] was 25 mg/L, the MIC [5] was 6.25 mg/L and the “Survival Rate (T/C)” value (sarcoma 180) was 200. The MIC ([6]; IFO6352) was 25 mg/L, the MIC [7, 12] was 100 mg/L and the MIC [1] was ≤ 1 mg/L. For the same molecule, the MIC ([8]; IFO0209) was 12.5 mg/L and the MIC ([9]; IFO5365) was 6.25 mg/L.
`CC(C)CCCC(C)CCCC(C)CCCC(C)CCOP(=O)([O-])OCC[N+](C)(C)C` (stereo not shown) [Production Example 7, 3,7,11,15-Tetramethylhexadecyl 2-trimethylammonioethyl phosphate] was tested, and the MIC (Gibberella fujiknroi) was 6.25 mg/L, the MIC [5] was 1.56 mg/L and the MIC [7, 12] was 100 mg/L. It also gave an MIC [1] of 4 mg/L and an MIC ([9]; IFO5365) of 25 mg/L.
For `CCCCCCCCCCCCCCC/C=C/COP(=O)([O-])OCC[N+](C)(C)C` [Production Example 10, (E)-2-Octadecenyl 2-trimethylammonioethyl phosphate], the MIC [1] was ≤ 1 mg/L.
In the case of `CCCCCCCCC(CCCCCCCC)OP(=O)([O-])OCC[N+](C)(C)C` [Production Example 11, (1-Octyl)nonyl 2-trimethylammonioethyl phosphate], the “Survival Rate (T/C)” value (sarcoma 180) is reported as 282 and the MIC [1] is reported as ≤ 1 mg/L.

Reference: patent US4935520A, “Compound, oleyl-2-pyridinioethyl phosphate having antifungal and antiprotozoal properties” (Takeda Chemical Industries, Ltd., priority 1982, dated 1990)
